One block for each compound: values may come before it. Active and inactive are the calls of the source. The calls are words filed in the database; no cut-off is given here.
What was measured:
[1] = Efflux ratio in human MDR cells; format: ADME, cell-based
[2] = Plasma protein binding in human assessed as unbound fraction; format: ADME, cell-free
[3] = Intrinsic clearance in human liver microsomes; format: ADME, Microsome
[4] = Apparent permeability across apical to basolateral side in RRCK cells; conditions: dog, MDCK
[5] = Lipophilicity, log D of the compound in Octanol/buffer by shake-flask method
[6] = biological target: T1, Pantetheinase (Mus musculus, UniProt Q9Z0K8); experiment: Inhibition of mouse vanin-1
T1 sequence (Q9Z0K8 whole entry): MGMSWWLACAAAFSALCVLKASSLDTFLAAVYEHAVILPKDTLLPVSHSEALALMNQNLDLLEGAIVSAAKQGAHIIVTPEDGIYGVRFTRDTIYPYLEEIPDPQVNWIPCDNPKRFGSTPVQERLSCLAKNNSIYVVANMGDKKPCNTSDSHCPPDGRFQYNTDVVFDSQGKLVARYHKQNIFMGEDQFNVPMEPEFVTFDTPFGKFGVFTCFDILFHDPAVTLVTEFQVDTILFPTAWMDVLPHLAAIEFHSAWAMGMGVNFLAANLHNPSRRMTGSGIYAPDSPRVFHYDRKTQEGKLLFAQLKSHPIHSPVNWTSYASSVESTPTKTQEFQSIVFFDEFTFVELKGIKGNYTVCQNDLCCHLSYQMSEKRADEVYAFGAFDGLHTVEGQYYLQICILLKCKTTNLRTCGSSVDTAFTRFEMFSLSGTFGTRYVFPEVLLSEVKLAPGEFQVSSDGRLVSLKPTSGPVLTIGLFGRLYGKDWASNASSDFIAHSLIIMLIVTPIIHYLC

[7] = biological target: T2, Biotinidase (Homo sapiens, UniProt P43251); experiment: Inhibition of N-terminal FLAG/His6-tagged human biotinidase expressed in COS cells using biotinyl-7-amino-4-trifluoromethylcoumarin as substrate preincubated for 10 mins followed by substrate addition and measured after 90 mins; format: cell-based
T2 sequence (P43251 whole entry): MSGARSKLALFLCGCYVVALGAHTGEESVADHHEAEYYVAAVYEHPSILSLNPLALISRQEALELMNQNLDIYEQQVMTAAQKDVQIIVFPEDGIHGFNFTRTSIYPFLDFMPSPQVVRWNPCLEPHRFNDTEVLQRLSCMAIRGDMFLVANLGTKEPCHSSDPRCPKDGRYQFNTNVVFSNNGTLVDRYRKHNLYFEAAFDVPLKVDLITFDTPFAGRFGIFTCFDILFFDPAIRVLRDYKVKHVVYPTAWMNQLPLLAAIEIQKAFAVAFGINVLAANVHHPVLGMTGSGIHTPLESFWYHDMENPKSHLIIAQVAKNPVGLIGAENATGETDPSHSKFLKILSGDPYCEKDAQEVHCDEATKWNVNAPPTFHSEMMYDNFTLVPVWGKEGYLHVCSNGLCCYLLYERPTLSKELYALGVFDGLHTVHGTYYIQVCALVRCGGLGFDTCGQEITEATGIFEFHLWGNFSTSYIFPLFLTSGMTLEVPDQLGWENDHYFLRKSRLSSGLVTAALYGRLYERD

[8] = biological target: T3, Pantetheinase (Homo sapiens) (UniProt O95497); experiment: Binding affinity to recombinant N-terminal FLAG/His6-tagged human vanin-1 expressed in CHO cells assessed as binding constant (Kon) by surface plasmon resonance analysis
T3 sequence (whole entry): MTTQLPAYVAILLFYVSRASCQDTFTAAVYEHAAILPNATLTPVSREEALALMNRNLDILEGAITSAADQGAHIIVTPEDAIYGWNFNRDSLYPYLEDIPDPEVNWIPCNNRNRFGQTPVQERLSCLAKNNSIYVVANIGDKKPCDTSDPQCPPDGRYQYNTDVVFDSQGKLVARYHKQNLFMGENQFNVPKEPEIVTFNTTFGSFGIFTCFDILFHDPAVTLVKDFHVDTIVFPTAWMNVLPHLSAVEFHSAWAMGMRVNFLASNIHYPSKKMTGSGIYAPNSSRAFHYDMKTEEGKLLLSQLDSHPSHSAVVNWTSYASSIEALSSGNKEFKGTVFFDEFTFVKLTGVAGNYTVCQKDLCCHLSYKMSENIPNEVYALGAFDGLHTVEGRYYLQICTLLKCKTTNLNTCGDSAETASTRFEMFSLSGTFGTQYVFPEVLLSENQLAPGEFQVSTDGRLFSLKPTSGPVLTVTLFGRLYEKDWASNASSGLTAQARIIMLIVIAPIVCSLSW

[9] = biological target: T4, Pantetheinase (Homo sapiens, UniProt O95497); experiment: Binding affinity to recombinant N-terminal FLAG/His6-tagged human vanin-1 expressed in CHO cells assessed as dissociation constant by surface plasmon resonance analysis
T4 sequence (O95497 whole entry): T3 sequence (whole entry)

[10] = biological target: T3, Pantetheinase (Homo sapiens); experiment: Binding affinity to recombinant N-terminal FLAG/His6-tagged human vanin-1 expressed in CHO cells assessed as binding constant (Koff) by surface plasmon resonance analysis
[11] = biological target: T4, Pantetheinase; experiment: Inhibition of recombinant N-terminal FLAG/His6-tagged human vanin-1 expressed in CHO cells at 10 uM by 1H NMR analysis; format: cell-based
[12] = Intrinsic clearance in human hepatocytes assessed per million cells; format: ADME, cell-based, Hepatocyte
[13] = Intrinsic clearance in rat hepatocytes assessed per million cells; format: ADME, cell-based, Hepatocyte
[14] = Clearance in rat; format: ADME; conditions: in vivo
[15] = Volume of distribution at steady state in rat; format: ADME; conditions: in vivo, read-out: Vdss
[16] = Half life in rat; format: ADME; conditions: in vivo
[17] = Oral bioavailability in rat; format: ADME, organism-based; conditions: in vivo
[18] = biological target: T5, Caspase-1 (Homo sapiens, UniProt P29466); experiment: Inhibition of caspase-1 (unknown origin)
T5 sequence (P29466 whole entry): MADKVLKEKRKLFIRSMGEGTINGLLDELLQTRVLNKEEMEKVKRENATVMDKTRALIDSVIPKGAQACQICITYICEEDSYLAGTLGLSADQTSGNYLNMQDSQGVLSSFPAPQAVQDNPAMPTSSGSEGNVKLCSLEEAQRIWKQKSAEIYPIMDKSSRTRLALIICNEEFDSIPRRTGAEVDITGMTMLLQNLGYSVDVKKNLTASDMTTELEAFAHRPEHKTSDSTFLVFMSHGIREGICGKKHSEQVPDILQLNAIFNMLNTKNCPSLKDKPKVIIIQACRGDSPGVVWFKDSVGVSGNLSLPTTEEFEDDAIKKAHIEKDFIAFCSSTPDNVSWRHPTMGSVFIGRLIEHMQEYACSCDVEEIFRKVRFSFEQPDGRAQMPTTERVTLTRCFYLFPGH

[19] = biological target: T6, Caspase-2 (Homo sapiens, UniProt P42575); experiment: Inhibition of caspase-2 (unknown origin)
T6 sequence (P42575 whole entry): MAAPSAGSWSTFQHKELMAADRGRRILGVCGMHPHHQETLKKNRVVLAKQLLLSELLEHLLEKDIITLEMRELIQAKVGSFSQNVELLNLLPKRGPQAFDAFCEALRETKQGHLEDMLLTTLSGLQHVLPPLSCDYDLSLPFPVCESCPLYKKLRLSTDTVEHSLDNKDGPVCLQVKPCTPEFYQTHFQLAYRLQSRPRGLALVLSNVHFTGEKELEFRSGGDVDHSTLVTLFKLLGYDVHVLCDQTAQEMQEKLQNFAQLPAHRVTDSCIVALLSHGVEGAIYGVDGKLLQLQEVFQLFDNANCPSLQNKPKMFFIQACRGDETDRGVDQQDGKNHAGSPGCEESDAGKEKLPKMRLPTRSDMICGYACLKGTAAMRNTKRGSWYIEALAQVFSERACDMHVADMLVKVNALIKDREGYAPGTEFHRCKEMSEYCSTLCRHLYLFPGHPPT

[20] = biological target: T7, Caspase-3 (Homo sapiens, UniProt P42574); experiment: Inhibition of caspase-3 (unknown origin)
T7 sequence (P42574 whole entry): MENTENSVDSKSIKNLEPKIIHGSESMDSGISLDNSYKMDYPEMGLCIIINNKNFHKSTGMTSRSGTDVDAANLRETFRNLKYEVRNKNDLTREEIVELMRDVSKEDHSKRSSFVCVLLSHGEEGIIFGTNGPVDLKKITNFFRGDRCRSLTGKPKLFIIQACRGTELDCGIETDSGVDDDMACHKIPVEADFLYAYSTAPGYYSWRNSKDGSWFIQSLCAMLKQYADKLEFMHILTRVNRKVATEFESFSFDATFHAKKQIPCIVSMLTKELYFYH

[21] = biological target: T4, Pantetheinase; experiment: Inhibition of human plasma vanin-1 using pantetheine-7-amino-4-trifluoromethykournarin as substrate preincubated for 30 mins followed by substrate addition; format: cell-free
[22] = Total clearance in mouse; format: ADME, organism-based; conditions: in vivo
[23] = Unbound clearance in mouse; format: ADME, organism-based; conditions: in vivo
[24] = Apparent intrinsic clearance in human liver microsome; format: ADME; conditions: liver microsomes, read-out: CLH
[25] = Apparent intrinsic clearance in mouse liver microsome; format: ADME; conditions: liver microsomes, read-out: CLH
[26] = Plasma protein binding in mouse assessed as unbound fraction; format: ADME, cell-free
[27] = Volume of distribution at steady state in mouse; format: ADME, organism-based; conditions: in vivo, read-out: Vdss
[28] = Half life in mouse; format: ADME, organism-based; conditions: in vivo
[29] = Oral bioavailability in mouse; format: ADME, organism-based; conditions: in vivo
[30] = system: Mus musculus; experiment: Anti-colitis activity against DSS-induced BALB/c mouse model assessed as increase in body weight at 50 mg/kg, sc measured on day 8 and 9; format: functional, organism-based; conditions: time 8-9 day
[31] = system: Mus musculus; experiment: Anti-colitis activity against DSS-induced BALB/c mouse model assessed as reduction in disease activity index at 50 mg/kg, sc measured on day 8 and 9; format: functional, organism-based; conditions: time 8-9 day
[32] = system: Mus musculus; experiment: Anti-colitis activity against DSS-induced colitis BALB/c mouse model assessed as effect on colon length at 50 mg/kg, sc measured after 14 days; format: functional, organism-based; conditions: time 14.0 day

- efflux ratio [1]: 3.2
- fraction unbound [2]: 0.00918
- Intrinsic clearance [3]: < 10 µL/min/mg
- Papp A→B [4]: 9.5 ×10⁻⁶ cm/s
- logD [5]: 0.7
- IC50 [6]: 10.2 nM
- IC50 [7]: 18000 nM
- K [8]: 8.1 10^7/M/s
- Kd [9]: 20 nM
- K [10]: 0.52 s⁻¹
- IC50 [11]: 115 nM
- CLint [12]: 11 µL/min/1e6 cells
- CLint [13]: 45 µL/min/1e6 cells
- clearance [14]: 88 mL/min/kg
- Vd [15]: 1.1 L/kg
- half-life [16]: 9 min
- bioavailability [17]: 11%
- IC50 [18]: > 10000 nM
- IC50 [19]: > 10000 nM
- IC50 [20]: > 10000 nM
Structure (SMILES): O=C(c1cnc(NC2(c3cncnc3)CC2)nc1)N1CCCCC1

- Intrinsic clearance [3]: 14 µL/min/mg
- Papp A→B [4]: 27 ×10⁻⁶ cm/s
- logD [5]: 1.2
- IC50 [6]: 4.8 nM
- IC50 [21]: 12 nM
- clearance [22]: 29 mL/min/kg
- CL free [23]: 49 mL/min/kg
- IC50 [7]: 24000 nM
- CLint scaled [24]: 14 mL/min/kg
- CLint scaled [25]: 39 mL/min/kg
- fraction unbound [26]: 0.0046
- Vd [27]: 1.1 L/kg
- half-life [28]: 60 min
- bioavailability [29]: 29%
Structure (SMILES): N#Cc1cccc(C(=O)c2cnc(NC3(c4cncnc4)CC3)nc2)c1
- Activity [30]: Active
- Activity [31]: Active
- Activity [32]: Active

From ChEMBL document CHEMBL5046251, “Discovery of a Series of Pyrimidine Carboxamides as Inhibitors of Vanin-1” (J Med Chem, 2022)
